Reference: patent EP1247803A2, “Indolinone compounds suitable for modulation of protein kinases” (Sugen, Inc., priority 1996, dated 1998)

Tests used:
[1] = target: PDGF-R (Homo sapiens, UniProt P09619); assay: PDGF-R ELISA; format: cell-based
Source text: A PDGF-R ELISA is described in International Patent Publication No. WO 96/40116, published December 19, 1996 by Tang et al.

[2] = target: T1, EGFR (Homo sapiens, UniProt P00533); assay: EGFR ELISA assay (in vitro kinase activity, EGFR captured from A431 cell lysate); format: biochemical; set-up: concentration or dose not given beside the values
T1 construct: Add 7 ug A431 cell lysate per well (EGFR source); endogenous in cells; host or cells: A431
T1 sequence (P00533 25-1210): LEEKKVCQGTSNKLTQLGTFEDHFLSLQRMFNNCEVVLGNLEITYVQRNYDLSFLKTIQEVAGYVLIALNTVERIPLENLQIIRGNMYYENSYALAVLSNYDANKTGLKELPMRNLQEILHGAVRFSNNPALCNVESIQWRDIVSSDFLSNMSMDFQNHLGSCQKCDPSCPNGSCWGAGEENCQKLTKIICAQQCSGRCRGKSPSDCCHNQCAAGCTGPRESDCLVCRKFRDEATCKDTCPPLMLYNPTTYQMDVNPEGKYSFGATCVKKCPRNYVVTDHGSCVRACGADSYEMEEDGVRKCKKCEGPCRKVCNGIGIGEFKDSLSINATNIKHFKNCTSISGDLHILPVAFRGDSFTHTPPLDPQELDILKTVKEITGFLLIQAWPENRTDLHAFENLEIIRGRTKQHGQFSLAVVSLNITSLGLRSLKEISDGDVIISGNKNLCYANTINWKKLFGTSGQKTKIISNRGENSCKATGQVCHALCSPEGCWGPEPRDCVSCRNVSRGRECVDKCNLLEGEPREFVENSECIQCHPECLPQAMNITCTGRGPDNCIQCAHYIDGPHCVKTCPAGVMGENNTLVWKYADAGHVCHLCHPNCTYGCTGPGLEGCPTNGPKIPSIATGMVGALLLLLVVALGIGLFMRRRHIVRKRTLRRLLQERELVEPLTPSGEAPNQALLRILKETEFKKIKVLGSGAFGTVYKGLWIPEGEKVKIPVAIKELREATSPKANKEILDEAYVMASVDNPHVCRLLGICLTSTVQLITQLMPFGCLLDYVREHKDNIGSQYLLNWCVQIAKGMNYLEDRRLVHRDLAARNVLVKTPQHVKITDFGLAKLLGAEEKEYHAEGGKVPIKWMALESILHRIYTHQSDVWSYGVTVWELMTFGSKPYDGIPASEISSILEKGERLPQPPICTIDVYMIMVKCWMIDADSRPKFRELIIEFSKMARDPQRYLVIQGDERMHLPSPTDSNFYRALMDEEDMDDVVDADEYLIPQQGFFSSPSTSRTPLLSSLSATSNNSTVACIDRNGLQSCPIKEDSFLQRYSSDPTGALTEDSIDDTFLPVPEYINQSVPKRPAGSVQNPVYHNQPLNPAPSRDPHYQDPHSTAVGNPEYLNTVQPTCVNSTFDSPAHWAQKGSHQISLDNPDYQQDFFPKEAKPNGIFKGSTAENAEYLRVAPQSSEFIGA
Summary of the method: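 Receptor autophosphorylation was read by ELISA: anti-phosphotyrosine serum and an HRP-linked secondary with ABTS substrate, absorbance at 410 nm (reference 630 nm). The reaction ran 5 min with 3 µM ATP and 5 mM MnCl2 and was quenched by 20 mM EDTA. Compounds were first incubated 30 min with antibody-captured EGFR from A431 cell lysate.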

PDGF-R, sequence (P09619 33-1106, species assumed): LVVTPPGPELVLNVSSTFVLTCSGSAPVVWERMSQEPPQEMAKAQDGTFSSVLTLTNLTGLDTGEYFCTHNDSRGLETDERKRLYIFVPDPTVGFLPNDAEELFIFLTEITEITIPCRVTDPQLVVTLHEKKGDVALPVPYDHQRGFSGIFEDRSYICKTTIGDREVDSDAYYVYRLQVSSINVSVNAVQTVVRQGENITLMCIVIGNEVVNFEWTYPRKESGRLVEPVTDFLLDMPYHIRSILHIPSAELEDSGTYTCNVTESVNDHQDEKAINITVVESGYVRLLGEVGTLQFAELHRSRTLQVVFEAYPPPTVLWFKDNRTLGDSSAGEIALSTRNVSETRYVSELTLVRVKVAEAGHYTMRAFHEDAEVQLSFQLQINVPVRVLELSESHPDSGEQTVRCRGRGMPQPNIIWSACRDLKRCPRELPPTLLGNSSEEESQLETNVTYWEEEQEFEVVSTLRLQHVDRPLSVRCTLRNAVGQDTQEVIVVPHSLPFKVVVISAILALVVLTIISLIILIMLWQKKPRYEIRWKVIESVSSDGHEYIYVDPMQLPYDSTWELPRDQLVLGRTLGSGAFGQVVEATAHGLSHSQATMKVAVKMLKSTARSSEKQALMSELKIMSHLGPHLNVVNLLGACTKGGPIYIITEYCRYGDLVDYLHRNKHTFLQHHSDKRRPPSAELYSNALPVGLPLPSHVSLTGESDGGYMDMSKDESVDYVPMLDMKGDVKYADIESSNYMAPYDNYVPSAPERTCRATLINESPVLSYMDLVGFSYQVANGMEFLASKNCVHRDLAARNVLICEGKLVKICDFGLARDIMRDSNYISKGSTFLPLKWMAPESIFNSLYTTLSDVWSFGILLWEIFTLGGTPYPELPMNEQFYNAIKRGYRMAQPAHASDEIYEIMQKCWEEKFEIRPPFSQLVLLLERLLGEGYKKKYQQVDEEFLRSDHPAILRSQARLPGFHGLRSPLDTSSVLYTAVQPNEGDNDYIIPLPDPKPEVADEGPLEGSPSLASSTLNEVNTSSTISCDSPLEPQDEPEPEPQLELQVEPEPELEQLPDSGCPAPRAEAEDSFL

| Structure (SMILES) | PDGF Kinase %Inhibition [1] [%] | Biochem EGFR %Inhibition [2] [%] |
| --- | --- | --- |
| O=C1Nc2ccc(I)cc2C1=Cc1c(O)cc(O)cc1O [10722/B03] | 3.7 | 19.6 |
| CNS(=O)(=O)c1ccc2c(c1)C(=Cc1ccc(F)cc1F)C(=O)N2 [10722/D06] | 8.9 | -2.5 |
| CNS(=O)(=O)c1ccc2c(c1)C(=Cc1ccc(C(=O)O)cc1)C(=O)N2 [10722/D05] | 22.0 | -3.8 |
| O=C1Nc2c(Br)cc(Br)cc2C1=Cc1csc([N+](=O)[O-])c1 [10722/A09] | 21.5 | 16.8 |
| Cc1cc(C=C2C(=O)Nc3ccc(S(=O)(=O)Nc4ccc(C(F)(F)F)cc4)cc32)cc(C)c1O [10722/E07] | 40.9 | 28.7 |
| CCCCN(CCCC)c1ccc(C=C2C(=O)Nc3c(Br)cc(Br)cc32)cc1 [10722/A10] | 15.2 | -4.2 |
| O=C1Nc2c(Br)cc(Br)cc2C1=Cc1ccc(F)cc1F [10722/A06] | 19.8 | 28.4 |
| O=C1Nc2ccc(S(=O)(=O)Nc3ccc(C(F)(F)F)cc3)cc2C1=Cc1c(O)cc(O)cc1O [10722/E03] | -7.2 | 33.0 |
| O=C1Nc2ccc(S(=O)(=O)Nc3ccc(C(F)(F)F)cc3)cc2C1=Cc1ccc([N+](=O)[O-])s1 [10722/E04] | 30.6 | 1.4 |
| CNS(=O)(=O)c1ccc2c(c1)C(=Cc1c(O)cc(O)cc1O)C(=O)N2 [10722/D03] | -9.4 | 31.0 |
| O=C1Nc2c(Br)cc(Br)cc2C1=Cc1ccc(C(=O)O)cc1 [10722/A05] | 33.5 | 22.4 |
| O=C1Nc2ccc(I)cc2C1=Cc1ccc(C(=O)O)cc1 [10722/B05] | 21.5 | 9.3 |
| CCCCN(CCCC)c1ccc(C=C2C(=O)Nc3ccc(S(=O)(=O)Nc4ccc(C(F)(F)F)cc4)cc32)cc1 [10722/E10] | 31.8 | -13.3 |
| O=C1Nc2ccc(I)cc2C1=Cc1ccc([N+](=O)[O-])s1 [10722/B04] | 3.1 | 10.6 |
| O=C1Nc2ccc(S(=O)(=O)Nc3ccc(C(F)(F)F)cc3)cc2C1=Cc1ccc(C(F)(F)F)cc1 [10722/E11] | 28.3 | 4.2 |
| O=C1Nc2ccc(S(=O)(=O)Nc3ccc(C(F)(F)F)cc3)cc2C1=Cc1csc([N+](=O)[O-])c1 [10722/E09] | 26.6 | 4.1 |
| CC(C)(C)c1cc(C=C2C(=O)Nc3c(Br)cc(Br)cc32)cc([N+](=O)[O-])c1O [10722/A02] | 28.9 | 23.7 |
| O=C1Nc2ccc(I)cc2C1=Cc1ccc(F)cc1F [10722/B06] | 21.5 | -4.9 |
| CC(C)(C)c1cc(C=C2C(=O)Nc3ccc(I)cc32)cc(Cl)c1O [10722/B08] | 27.8 | 0.5 |
| CNS(=O)(=O)c1ccc2c(c1)C(=Cc1cc([N+](=O)[O-])c(O)c(C(C)(C)C)c1)C(=O)N2 [10722/D02] | 31.8 | 26.1 |
